Key:
Assay type in all cases: in vivo
[1] = test system: Xanthium strumarium (XANST); test: Glasshouse adjuvant test with fomesafen (Example 3); settings: fomesafen 60 or 120 g/ha, adjuvant 0.2% v/v or none, 200 l/ha; leaf area killed; mean over two rates, six replicates, 7 and 14 days
Experimental: (§1) Compound No. 2 was tested in a glasshouse against four weed species in combination with the herbicide fomesafen. An agrochemical composition was prepared containing 0.2% v/v of the adjuvant in a track sprayer and was applied at a volume of 200 liters per hectare. Fomesafen was applied at either 60 or 120 grams of pesticide per hectare on weeds which had been grown to the 1.3 or 1.4 leaf stage. The weed species were Chenopodium album (CHEAL), Abutilon theophrasti (ABUTH), Setaria viridis (SETVI), and Xanthium strumarium (XANST).
(§2) Each spray test was replicated six times. The efficacy of the herbicide was assessed visually and expressed as a percentage of the leaf area killed. Samples were assessed at time periods of 7 and 14 days following application. The results shown in Table 3 below are mean averages over the two rates of fomesafen, six replicates and the two assessment timings, and are compared to the efficacy of fomesafen in the absence of adjuvant.

[2] = test system: Chenopodium album (CHEAL); test: as above; settings: fomesafen 60 or 120 g/ha, adjuvant 0.2% v/v or none, 200 l/ha; leaf area killed; mean over two rates, six replicates, 7 and 14 days
Experimental: as §1, §2

[3] = test system: Abutilon theophrasti (ABUTH); test: as above; settings: fomesafen 60 or 120 g/ha, adjuvant 0.2% v/v or none, 200 l/ha; leaf area killed; mean over two rates, six replicates, 7 and 14 days
Experimental: as §1, §2

Setaria viridis (SETVI) = test: as above; settings: fomesafen 60 or 120 g/ha, adjuvant 0.2% v/v or none, 200 l/ha; leaf area killed; mean over two rates, six replicates, 7 and 14 days
Experimental: as §1, §2

[4] = test system: four weed species (ABUTH, CHEAL, SETVI, XANST); test: Glasshouse adjuvant test with fomesafen (Example 3), mean across species; settings: fomesafen 60 or 120 g/ha, adjuvant 0.2% v/v or none
Experimental: as §1, §2

[5] = test system: Brachiaria platyphylla (BRAPP); test: Glasshouse adjuvant test with mesotrione (Example 4); settings: mesotrione 60 or 120 g/ha, adjuvant 0.2% v/v, 200 l/ha; leaf area killed; mean over two rates, six replicates, 6, 14 and 21 days
Experimental: as §1, with “mesotrione.” for “fomesafen.”, “Mesotrione” for “Fomesafen”, “Amaranthus retroflexus (AMARE),” for “Chenopodium album (CHEAL),”, “Brachiaria platyphylla (BRAPP),” for “Setaria viridis (SETVI),”, “Digitaria sanguinalis (DIGSA).” for “Xanthium strumarium (XANST).”
(§3) Each spray test was replicated six times. The efficacy of the herbicide was assessed visually and expressed as a percentage of the leaf area killed. Samples were assessed at time periods of 6, 14 and 21 days following application. The results shown in Table 4 below are mean averages over the two rates of mesotrione, six replicates and the three assessment timings. The results are compared to those obtained for mesotrione in combination with the commercially available tank mix adjuvant Turbocharge® D (Syngenta Crop Protection Canada, Inc.).

[6] = test system: Digitaria sanguinalis (DIGSA); test: as above; settings: mesotrione 60 or 120 g/ha, adjuvant 0.2% v/v, 200 l/ha; leaf area killed; mean over two rates, six replicates, 6, 14 and 21 days
Experimental: as §1, with “mesotrione.” for “fomesafen.”, “Mesotrione” for “Fomesafen”, “Amaranthus retroflexus (AMARE),” for “Chenopodium album (CHEAL),”, “Brachiaria platyphylla (BRAPP),” for “Setaria viridis (SETVI),”, “Digitaria sanguinalis (DIGSA).” for “Xanthium strumarium (XANST).”
as §3

[7] = test system: Abutilon theophrasti (ABUTH); test: as above; settings: mesotrione 60 or 120 g/ha, adjuvant 0.2% v/v, 200 l/ha; leaf area killed; mean over two rates, six replicates, 6, 14 and 21 days
Experimental: as §1, with “mesotrione.” for “fomesafen.”, “Mesotrione” for “Fomesafen”, “Amaranthus retroflexus (AMARE),” for “Chenopodium album (CHEAL),”, “Brachiaria platyphylla (BRAPP),” for “Setaria viridis (SETVI),”, “Digitaria sanguinalis (DIGSA).” for “Xanthium strumarium (XANST).”
as §3

[8] = test system: Amaranthus retroflexus (AMARE); test: as above; settings: mesotrione 60 or 120 g/ha, adjuvant 0.2% v/v, 200 l/ha; leaf area killed; mean over two rates, six replicates, 6, 14 and 21 days
Experimental: as §1, with “mesotrione.” for “fomesafen.”, “Mesotrione” for “Fomesafen”, “Amaranthus retroflexus (AMARE),” for “Chenopodium album (CHEAL),”, “Brachiaria platyphylla (BRAPP),” for “Setaria viridis (SETVI),”, “Digitaria sanguinalis (DIGSA).” for “Xanthium strumarium (XANST).”
as §3

[9] = test system: four weed species (AMARE, ABUTH, BRAPP, DIGSA); test: Glasshouse adjuvant test with mesotrione (Example 4), mean across species; settings: mesotrione 60 or 120 g/ha, adjuvant 0.2% v/v
Experimental: as §1, with “mesotrione.” for “fomesafen.”, “Mesotrione” for “Fomesafen”, “Amaranthus retroflexus (AMARE),” for “Chenopodium album (CHEAL),”, “Brachiaria platyphylla (BRAPP),” for “Setaria viridis (SETVI),”, “Digitaria sanguinalis (DIGSA).” for “Xanthium strumarium (XANST).”
as §3

[10] = test system: Digitaria sanguinalis (DIGSA); test: Glasshouse adjuvant test with nicosulfuron (Example 2); settings: nicosulfuron 30 or 60 g/ha, adjuvant 0.2% v/v, 200 l/ha; leaf area killed; mean over two rates, three replicates, 7, 14 and 21 days
Experimental: (§4) Compound No. 2 (see Example 1 and Table 1 above) was tested in a glasshouse against four weed species in combination with the herbicide nicosulfuron. An agrochemical composition was prepared containing 0.2% v/v of the adjuvant in a track sprayer and was applied at a volume of 200 liters per hectare. Nicosulfuron was applied at either 30 or 60 grams of pesticide per hectare on weeds which had been grown to the 1.3 or 1.4 leaf stage. The weed species were Chenopodium album (CHEAL), Abutilon theophrasti (ABUTH), […] (BRAPP), and Digitaria sanguinalis (DIGSA).
(§5) Each spray test was replicated three times. The efficacy of the herbicide was assessed visually and expressed as a percentage of the leaf area killed. Samples were assessed at time periods of 7, 14 and 21 days. following application. The results shown in Table 2 below are mean averages over the two rates of nicosulfuron, three replicates and the three assessment timings.

[11] = test system: Chenopodium album (CHEAL); test: as above; settings: nicosulfuron 30 or 60 g/ha, adjuvant 0.2% v/v, 200 l/ha; leaf area killed; mean over two rates, three replicates, 7, 14 and 21 days
Experimental: as §4, §5

[12] = test system: Abutilon theophrasti (ABUTH); test: as above; settings: nicosulfuron 30 or 60 g/ha, adjuvant 0.2% v/v, 200 l/ha; leaf area killed; mean over two rates, three replicates, 7, 14 and 21 days
Experimental: as §4, §5

Brassica perenni (BRAPP) = test: as above; settings: nicosulfuron 30 or 60 g/ha, adjuvant 0.2% v/v, 200 l/ha; leaf area killed; mean over two rates, three replicates, 7, 14 and 21 days
Experimental: as §4, §5

[13] = test system: four weed species (CHEAL, ABUTH, BRAPP, DIGSA); test: Glasshouse adjuvant test with nicosulfuron (Example 2), mean of species
Experimental: as §4, §5

In the case of `CCCCCCCCCCCCc1ccc(C(=O)NCCOCCOCCOCCOCCOCCOCCOCCO)cc1` [Compound 2, 4-DODECYL-N-[2-(2-{2-[2-(2-{2-[2-(2-HYDROXY-ETHOXY)-ETHOXY]-ETHOXY}-ETHOXY)-ETHOXY]-ETHOXY}-ETHOXY)-ETHYL]-BENZAMIDE], the “Mean percentage kill XANST” value [1] is reported as 68.8%, the “Mean percentage kill CHEAL” value [2] is reported as 34.1% and the “Mean percentage kill ABUTH” value [3] is reported as 90%. For the same compound, the “Mean percentage kill SETVI” value (Setaria viridis (SETVI)) was 41.7%, the “Mean percentage kill, Mean across species” value [4] was 58.6% and the “Mean percentage kill BRAPP” value [5] was 68.2%. The “Mean percentage kill DIGSA” value [6] was 83.4%, the “Mean percentage kill ABUTH” value [7] was 73.3% and the “Mean percentage kill AMARE” value [8] was 63.5%. For the same compound, the “Mean percentage kill, Mean across species” value [9] was 72.1%, the “Mean percentage kill DIGSA” value [10] was 83.1% and the “Mean percentage kill CHEAL” value [11] was 80%. For the same compound, the “Mean percentage kill ABUTH” value [12] was 47.1%, the “Mean percentage kill BRAPP” value (Brassica perenni (BRAPP)) was 86.4% and the “Mean percentage kill, Mean (g/ha)” value ([13]; nicosulfuron 30 or 60 g/ha, adjuvant 0.2% v/v, mean of the four weed species) was 73.9%. The “weed control compared to Turbocharge D” value ([13]; nicosulfuron formulation with adjuvant, in each case (all four weed species)) was “superior weed control”.

Reference: patent US10051857B2, “Formulation component” (SYNGENTA LIMITED, priority 2011, dated 2018)
